Data: PubChem BioAssay (NCI)
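48-hour exposure; five concentrations; linearly interpolated endpoints. GI50: concentration for 50% inhibition of growth. TGI: total growth inhibition.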

Assays:
Test in all cases: NCI tumour cell line growth inhibition, 48 h
786-0 renal = test system: 786-0 renal
A498 renal = test system: A498 renal
A549 NSCLC = test system: A549 NSCLC
ACHN renal = test system: ACHN renal
BT-549 breast = test system: BT-549 breast
CAKI-1 renal = test system: CAKI-1 renal
CCRF-CEM leukemia = test system: CCRF-CEM leukemia
COLO 205 colon = test system: COLO 205 colon
DU-145 prostate = test system: DU-145 prostate
EKVX NSCLC = test system: EKVX NSCLC
HCC-2998 colon = test system: HCC-2998 colon
HCT-116 colon = test system: HCT-116 colon
HCT-15 colon = test system: HCT-15 colon
HL-60(TB) leukemia = test system: HL-60(TB) leukemia
HOP-62 NSCLC = test system: HOP-62 NSCLC
HOP-92 NSCLC = test system: HOP-92 NSCLC
HS 578T breast = test system: HS 578T breast
HT29 colon = test system: HT29 colon
IGROV1 ovarian = test system: IGROV1 ovarian
KM12 colon = test system: KM12 colon
M14 melanoma = test system: M14 melanoma
MALME-3M melanoma = test system: MALME-3M melanoma
MCF7 breast = test system: MCF7 breast
MDA-MB-231 breast = test system: MDA-MB-231 breast
MDA-MB-435 = test system: MDA-MB-435
MOLT-4 leukemia = test system: MOLT-4 leukemia
NCI-H226 lung = test system: NCI-H226 lung
NCI-H23 lung = test system: NCI-H23 lung
NCI-H460 lung = test system: NCI-H460 lung
NCI-H522 lung = test system: NCI-H522 lung
NCI/ADR-RES ovarian = test system: NCI/ADR-RES ovarian
OVCAR-4 ovarian = test system: OVCAR-4 ovarian
OVCAR-5 ovarian = test system: OVCAR-5 ovarian
OVCAR-8 ovarian = test system: OVCAR-8 ovarian
PC-3 prostate = test system: PC-3 prostate
RPMI-8226 leukemia = test system: RPMI-8226 leukemia
RXF 393 renal = test system: RXF 393 renal
SF-268 CNS = test system: SF-268 CNS
SF-295 CNS = test system: SF-295 CNS
SF-539 CNS = test system: SF-539 CNS
SK-MEL-2 melanoma = test system: SK-MEL-2 melanoma
SK-MEL-28 melanoma = test system: SK-MEL-28 melanoma
SK-MEL-5 melanoma = test system: SK-MEL-5 melanoma
SK-OV-3 ovarian = test system: SK-OV-3 ovarian
SN12C renal = test system: SN12C renal
SNB-19 CNS = test system: SNB-19 CNS
SNB-75 CNS = test system: SNB-75 CNS
SR leukemia = test system: SR leukemia
SW-620 colon = test system: SW-620 colon
T-47D breast = test system: T-47D breast
TK-10 renal = test system: TK-10 renal
U251 CNS = test system: U251 CNS
UACC-257 melanoma = test system: UACC-257 melanoma
UACC-62 melanoma = test system: UACC-62 melanoma
UO-31 renal = test system: UO-31 renal

C=CCN(C)S(=O)(=O)/N=C1\NC(=O)NC1=C(Cl)Cl
GI50 (786-0 renal): 2.39 µM
TGI (786-0 renal): 5.79 µM
GI50 (A498 renal): 12 µM
TGI (A498 renal): 24.6 µM
GI50 (A549 NSCLC): 5.27 µM
TGI (A549 NSCLC): 24 µM
GI50 (ACHN renal): 1.77 µM
TGI (ACHN renal): 3.18 µM
GI50 (BT-549 breast): 2.1 µM
TGI (BT-549 breast): 4.49 µM
GI50 (CAKI-1 renal): 1.72 µM
TGI (CAKI-1 renal): 3.15 µM
GI50 (CCRF-CEM leukemia): 1.94 µM
TGI (CCRF-CEM leukemia): 4.68 µM
GI50 (COLO 205 colon): 2.02 µM
TGI (COLO 205 colon): 4.37 µM
GI50 (DU-145 prostate): 4.08 µM
TGI (DU-145 prostate): 13.6 µM
GI50 (EKVX NSCLC): 1.82 µM
TGI (EKVX NSCLC): 3.64 µM
GI50 (HCC-2998 colon): 1.76 µM
TGI (HCC-2998 colon): 3.43 µM
GI50 (HCT-116 colon): 1.84 µM
TGI (HCT-116 colon): 3.55 µM
GI50 (HCT-15 colon): 1.63 µM
TGI (HCT-15 colon): 3.22 µM
GI50 (HL-60(TB) leukemia): 2.06 µM
TGI (HL-60(TB) leukemia): 5.31 µM
GI50 (HOP-62 NSCLC): 3.28 µM
TGI (HOP-62 NSCLC): 14.4 µM
GI50 (HOP-92 NSCLC): 1.76 µM
TGI (HOP-92 NSCLC): 3.4 µM
GI50 (HS 578T breast): 3.64 µM
TGI (HS 578T breast): 30.1 µM
GI50 (HT29 colon): 2.15 µM
TGI (HT29 colon): 4.87 µM
GI50 (IGROV1 ovarian): 1.84 µM
TGI (IGROV1 ovarian): 3.65 µM
GI50 (KM12 colon): 0.437 µM
TGI (KM12 colon): 25.6 µM
GI50 (M14 melanoma): 1.89 µM
TGI (M14 melanoma): 3.73 µM
GI50 (MALME-3M melanoma): 1.85 µM
TGI (MALME-3M melanoma): 3.58 µM
GI50 (MCF7 breast): 0.387 µM
TGI (MCF7 breast): > 100 µM
GI50 (MDA-MB-231 breast): 1.86 µM
TGI (MDA-MB-231 breast): 3.42 µM
GI50 (MDA-MB-435): 1.93 µM
TGI (MDA-MB-435): 3.86 µM
GI50 (MOLT-4 leukemia): 2.36 µM
TGI (MOLT-4 leukemia): 5.93 µM
GI50 (NCI-H226 lung): 2.09 µM
TGI (NCI-H226 lung): 4.63 µM
GI50 (NCI-H23 lung): 1.85 µM
TGI (NCI-H23 lung): 3.6 µM
GI50 (NCI-H460 lung): 2.71 µM
TGI (NCI-H460 lung): 7.1 µM
GI50 (NCI-H522 lung): 1.97 µM
TGI (NCI-H522 lung): 4.16 µM
GI50 (NCI/ADR-RES ovarian): 2.12 µM
TGI (NCI/ADR-RES ovarian): 4.91 µM
GI50 (OVCAR-4 ovarian): 1.82 µM
TGI (OVCAR-4 ovarian): 3.36 µM
GI50 (OVCAR-5 ovarian): 1.69 µM
TGI (OVCAR-5 ovarian): 3.13 µM
GI50 (OVCAR-8 ovarian): 2.33 µM
TGI (OVCAR-8 ovarian): 5.69 µM
GI50 (PC-3 prostate): 2.35 µM
TGI (PC-3 prostate): 6.2 µM
GI50 (RPMI-8226 leukemia): 0.404 µM
TGI (RPMI-8226 leukemia): 9.84 µM
GI50 (RXF 393 renal): 1.7 µM
TGI (RXF 393 renal): 3.37 µM
GI50 (SF-268 CNS): 3.17 µM
TGI (SF-268 CNS): 10.7 µM
GI50 (SF-295 CNS): 13.6 µM
TGI (SF-295 CNS): 26.7 µM
GI50 (SF-539 CNS): 1.79 µM
TGI (SF-539 CNS): 3.3 µM
GI50 (SK-MEL-2 melanoma): 2.9 µM
TGI (SK-MEL-2 melanoma): 7.76 µM
GI50 (SK-MEL-28 melanoma): 1.78 µM
TGI (SK-MEL-28 melanoma): 3.26 µM
GI50 (SK-MEL-5 melanoma): 2 µM
TGI (SK-MEL-5 melanoma): 4.21 µM
GI50 (SK-OV-3 ovarian): 17 µM
TGI (SK-OV-3 ovarian): 31 µM
GI50 (SN12C renal): 1.77 µM
TGI (SN12C renal): 3.29 µM
GI50 (SNB-19 CNS): 2.88 µM
TGI (SNB-19 CNS): 9.29 µM
GI50 (SNB-75 CNS): 1.82 µM
TGI (SNB-75 CNS): 13.1 µM
GI50 (SR leukemia): 0.693 µM
TGI (SR leukemia): 6.68 µM
GI50 (SW-620 colon): 1.9 µM
TGI (SW-620 colon): 3.72 µM
GI50 (T-47D breast): 3.25 µM
TGI (T-47D breast): > 100 µM
GI50 (TK-10 renal): 9.07 µM
TGI (TK-10 renal): > 100 µM
GI50 (U251 CNS): 1.87 µM
TGI (U251 CNS): 4.05 µM
GI50 (UACC-257 melanoma): 3.56 µM
TGI (UACC-257 melanoma): 17 µM
GI50 (UACC-62 melanoma): 1.75 µM
TGI (UACC-62 melanoma): 3.39 µM
GI50 (UO-31 renal): 2.82 µM
TGI (UO-31 renal): 11.9 µM
